Measurements reported in patent US9434711B2 (Janssen Pharmaceutica, NV, priority 2007, dated 2016).

Biological target: canine TRPM8 (Canis lupus familiaris, UniProt Q1A7N1)
Assay: In Vitro Canine TRPM8 Functional Assay (Ca2+ fluorescence, icilin activation)
Format: cell-based
Conditions: for IC50: HEK293 cells stably expressing canine TRPM8, icilin activation, eight-point dose-response, read-out: IC50; for inhibition at 0.2 µM / % Inh @ 0.2 (μM): compound at 0.2 μM, canine TRPM8, icilin activation; for inhibition at 0.2 µM: read-out: % Inh @ 0.2
Summary of the method: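 Eight-point dose-response curves in quadruplicate gave EC50 or IC50 values from a Ca2+-sensitive dye assay in HEK293 cells stably carrying canine TRPM8. Icilin, dosed near its 80% maximal level, followed a 5 min compound exposure.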

canine TRPM8, sequence (Q1A7N1 1-1104): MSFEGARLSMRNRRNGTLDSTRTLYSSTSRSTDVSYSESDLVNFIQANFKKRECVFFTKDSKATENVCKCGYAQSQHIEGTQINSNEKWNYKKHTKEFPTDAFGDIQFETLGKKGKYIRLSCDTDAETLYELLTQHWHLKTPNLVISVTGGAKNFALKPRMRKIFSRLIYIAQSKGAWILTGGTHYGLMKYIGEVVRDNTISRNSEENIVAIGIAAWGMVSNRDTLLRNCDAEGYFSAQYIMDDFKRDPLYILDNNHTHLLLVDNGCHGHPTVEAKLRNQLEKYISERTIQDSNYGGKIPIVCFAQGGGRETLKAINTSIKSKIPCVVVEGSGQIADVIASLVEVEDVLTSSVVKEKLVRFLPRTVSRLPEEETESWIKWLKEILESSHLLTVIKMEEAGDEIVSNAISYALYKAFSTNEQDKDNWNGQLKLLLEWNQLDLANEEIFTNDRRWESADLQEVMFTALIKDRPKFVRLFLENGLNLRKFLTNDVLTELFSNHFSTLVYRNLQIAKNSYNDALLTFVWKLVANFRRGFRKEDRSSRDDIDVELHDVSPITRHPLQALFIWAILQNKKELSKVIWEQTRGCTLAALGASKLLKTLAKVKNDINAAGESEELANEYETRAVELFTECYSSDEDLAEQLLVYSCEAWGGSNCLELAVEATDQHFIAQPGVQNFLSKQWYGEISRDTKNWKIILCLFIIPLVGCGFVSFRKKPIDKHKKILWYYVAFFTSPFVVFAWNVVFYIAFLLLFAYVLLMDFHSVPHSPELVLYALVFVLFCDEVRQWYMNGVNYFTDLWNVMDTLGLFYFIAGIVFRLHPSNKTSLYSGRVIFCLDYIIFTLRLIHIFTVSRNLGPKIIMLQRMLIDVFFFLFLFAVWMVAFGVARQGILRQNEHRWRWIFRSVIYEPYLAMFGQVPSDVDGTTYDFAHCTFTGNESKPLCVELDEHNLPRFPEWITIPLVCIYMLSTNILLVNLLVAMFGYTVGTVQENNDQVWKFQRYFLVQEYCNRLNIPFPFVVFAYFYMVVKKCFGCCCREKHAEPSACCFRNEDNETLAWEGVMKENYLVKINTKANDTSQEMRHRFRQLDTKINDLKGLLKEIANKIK

SMILES | IC50 [nM] | inhibition at 0.2 µM [%] | % Inh @ 0.2 (μM) [%]
Cc1c(N(Cc2ccc(Cl)c(F)c2)S(=O)(=O)c2ccc(C(=O)O)cc2)sc2ccccc12 [Compound 521, N-(3-Methyl-benzo[b]thiophen-2-yl)-N-(4-chloro-3-fluoro-benzyl)-4-carboxy-benzenesulfonamide] | 2 | 101 | 
Cc1c(N(Cc2ccc(F)cc2C(F)(F)F)S(=O)(=O)c2ccc(C(=O)O)cc2)sc2ccccc12 [Compound 522, N-(3-Methyl-benzo[b]thiophen-2-yl)-N-(4-fluoro-2-trifluoromethyl-benzyl)-4-carboxy-benzenesulfonamide] | 4 | 101 | 
Cc1c(N(Cc2ccc3c(c2)OCO3)S(=O)(=O)c2ccc(C(=O)O)cc2)sc2ccccc12 [Compound 523, N-(3-Methyl-benzo[b]thiophen-2-yl)-N—(C-benzo[1,3]dioxol-5-yl-methy)-4-carboxy-benzenesulfonamide] | 2 |  | 101
COc1ccc(CN(c2sc3ccccc3c2C)S(=O)(=O)c2ccc(C(=O)O)cc2)cc1OC [Compound 525, N-(3-Methyl-benzo[b]thiophen-2-yl)-N-(3,4-dimethoxy-benzyl)-4-carboxy-benzenesulfonamide] |  | 101 | 
Cc1c(N(Cc2ccc(SC(F)(F)F)cc2)S(=O)(=O)c2ccc(C(=O)O)cc2)sc2ccccc12 [Compound 526, N-(3-Methyl-benzo[b]thiophen-2-yl)-N-(4-trifluoromethylsulfanyl-benzyl)-4-carboxy-benzenesulfonamide] | 1 | 102 | 
Cc1c(N(Cc2ccc(F)c(C(F)(F)F)c2)S(=O)(=O)c2cc(C(=O)O)cs2)sc2ccccc12 [Compound 527, N-(3-Methyl-benzo[b]thiophen-2-yl)-N-(4-fluoro-3-trifluoromethyl-benzyl)-4-carboxy-thien-2-ylsulfonamide] | 5 | 101 | 
Cc1cc(C(=O)O)sc1S(=O)(=O)N(Cc1ccc(F)c(C(F)(F)F)c1)c1sc2ccccc2c1C [Compound 528, N-(3-Methyl-benzo[b]thiophen-2-yl)-N-(4-fluoro-3-trifluoromethyl-benzyl)-(5-carboxy-3-methyl-thien-2-yl)-sulfonamide] | 16 | 102 | 
Cc1c(N(Cc2ccc(F)c(C(F)(F)F)c2)S(=O)(=O)c2ccc(C(=O)O)o2)sc2ccccc12 [Compound 529, N-(3-Methyl-benzo[b]thiophen-2-yl)-N-(4-fluoro-3-trifluoromethyl-benzyl)-5-carboxy-furan-2-yl-sulfonamide] |  | 35 | 
COC(=O)c1ccc(S(=O)(=O)N(CCCC(F)(F)F)c2sc3ccccc3c2Cl)cc1 [Compound 530, N-(3-Chloro-benzo[b]thiophen-2-yl)-N-(4,4,4-trifluoro-butyl)-4-carbomethoxy-benzenesulfonamide] |  | 54 | 
COC(=O)c1ccc(S(=O)(=O)N(CCCCC(F)(F)F)c2sc3ccccc3c2Cl)cc1 [Compound 531, N-(3-Chloro-benzo[b]thiophen-2-yl)-N-(5,5,5-trifluoro-pentyl)-4-carbomethoxy-benzenesulfonamide] | 46 | 88 | 
CCCCN(c1cc2ccccc2s1)S(=O)(=O)NC [Compound 532, N-(Benzo[b]thiophen-2-yl)-N-(butyl)-N′-methyl-sulfamide] |  | 19 | 
CNS(=O)(=O)N(Cc1ccc(F)c(C(F)(F)F)c1)c1sc2ccccc2c1C [Compound 533, N-(4-Fluoro-3-trifluoromethyl-benzyl)-N-(3-methylbenzo[b]thiophen-2-yl)-N′-methyl-sulfamide] | 32 | 102 | 
CCS(=O)(=O)N(Cc1ccc(F)c(C(F)(F)F)c1)c1sc2ccccc2c1[C@H](C)O [Compound 534] | 2 |  | 102
CCS(=O)(=O)N(Cc1ccc(F)c(C(F)(F)F)c1)c1sc2ccccc2c1[C@@H](C)O [Compound 535] | 1 |  | 102
CCCCN(C1=C(N(C)C)c2ccccc2S1(=O)=O)S(=O)(=O)c1ccc(C(=O)O)cc1 [Compound 536, N-(Butyl)-N-(3-dimethylamino-1,1-dioxo-1H-benzo[b]thiophen-2-yl)-4-carboxy-benzenesulfonamide] | 77 | 89 | 
O=C(O)c1ccc(S(=O)(=O)N(CCCC(F)(F)F)c2sc3ccccc3c2Cl)cc1 [Compound 537, N-(3-Chloro-benzo[b]thiophen-2-yl)-N-(4,4,4-trifluoro-butyl)-4-carboxy-benzenesulfonamide] | 8.2 | 105 | 
O=C(O)c1ccc(S(=O)(=O)N(CCCCC(F)(F)F)c2sc3ccccc3c2Cl)cc1 [Compound 538, N-(3-Chloro-benzo[b]thiophen-2-yl)-N-(5,5,5-trifluoro-pentyl)-4-carboxy-benzenesulfonamide] | 4.9 | 105 | 
CCCCN(c1sc2ccccc2c1C)S(=O)(=O)c1ccc(-c2nnn[nH]2)cc1 [Compound 539, N-(3-Methyl-benzo[b]thiophen-2-yl)-N-(butyl)-4-(1H-tetrazol-5-yl)-benzenesulfonamide] | 6.7 | 105 | 
CCCCN(c1sc2ccccc2c1C)S(=O)(=O)c1ccc(C2=NOS(=O)N2)cc1 (stereo not drawn) [Compound 540, N-(3-Methyl-benzo[b]thiophen-2-yl)-N-(butyl)-4-(3H-[1,2,3,5]oxathiadiazole-2-oxide)-benzenesulfonamide] | 12.2 |  | 104.6
Cc1c(N(Cc2ccc(F)c(C(F)(F)F)c2)S(=O)(=O)c2ccc(C3=NOS(=O)N3)cc2)sc2ccccc12 (stereo not drawn) [Compound 543, N-(3-Methyl-benzo[b]thiophen-2-yl)-N-(4-fluoro-3-trifluoromethyl-benzyl)-4-(3H-[1,2,3,5]oxathiadiazole-2-oxide)-benzenesulfonamide] | 7.2 |  | 104.46
Cc1c(N(CCCCC(F)(F)F)S(=O)(=O)c2ccc(C(=O)[O-])cc2)sc2ccccc12.[Na+] [Compound 545, Sodium, N-(3-Methylbenzo[b]thiophen-2-yl)-N-(5,5,5-trifluoro-pentyl)-4-carboxy-benzenesulfonamide] | 1.9 |  | 104.78

Further lines, with some results ahead:

IC50 [nM] | inhibition at 0.2 µM [%] | SMILES | % Inh @ 0.2 (μM) [%]
10.8 | 105 | CCCCN(c1sc2ccccc2c1C)S(=O)(=O)c1ccc(-c2noc(=O)[nH]2)cc1 [Compound 541, N-(3-Methyl-benzo[b]thiophen-2-yl)-N-(butyl)-4-(5-oxo-4,5-dihydro-[1,2,4]oxadiazol-3-yl)-benzenesulfonamide] | 
2.3 | 105 | Cc1c(N(Cc2ccc(F)c(C(F)(F)F)c2)S(=O)(=O)c2ccc(-c3nnn[nH]3)cc2)sc2ccccc12 [Compound 542, N-(3-Methyl-benzo[b]thiophen-2-yl)-N-(4-fluoro-3-trifluoromethyl-benzyl)-4-(1H-tetrazol-5-yl)-benzenesulfonamide] | 
1.8 | 105 | Cc1c(N(Cc2ccc(F)c(C(F)(F)F)c2)S(=O)(=O)c2ccc(-c3noc(=O)[nH]3)cc2)sc2ccccc12 [Compound 544, N-(3-Methyl-benzo[b]thiophen-2-yl)-N-(4-fluoro-3-trifluoromethyl-benzyl)-4-(5-oxo-4,5-dihydro-[1,2,4]oxadiazol-3-yl)-benzenesulfonamide] | 
68.3 | 85.7 | Cc1c(N(Cc2ccc(F)c(C(F)(F)F)c2)S(=O)(=O)c2cccc(C#N)c2)sc2ccccc12 [Compound 546, N-(4-Fluoro-3-trifluoromethyl-benzyl)-N-(3-methyl-benzo[b]thiophen-2-yl)-3-cyano-benzenesulfonamide] | 
7.4 | 105 | CC(C)c1c(N(Cc2ccc(F)c(C(F)(F)F)c2)S(=O)(=O)c2ccccc2)sc2ccccc12 [Compound 547, N-(4-Fluoro-3-trifluoromethyl-benzyl)-N-(3-isopropyl-benzo[b]thiophen-2-yl)-benzenesulfonamide] | 
28.9 | 102 | CC(C)c1c(N(CCC2CC2)S(=O)(=O)c2ccccc2)sc2ccccc12 [Compound 548, N-(2-Cyclopropyl-ethyl)-N-(3-isopropyl-benzo[b]thiophen-2-yl)-benzenesulfonamide] | 
15.9 | 104 | Cc1c(N(CCC2CC2)S(=O)(=O)c2cccc(C#N)c2)sc2ccccc12 [Compound 549, N-(2-Cyclopropyl-ethyl)-N-(3-methyl-benzo[b]thiophen-2-yl)-3-cyano-benzenesulfonamide] | 
18.8 | 104 | Cc1c(N(CCC(F)(F)F)S(=O)(=O)c2cccc(C#N)c2)sc2ccccc12 [Compound 550, N-(3-Methyl-benzo[b]thiophen-2-yl)-N-(3,3,3-trifluoro-propyl)-3-cyano-benzenesulfonamide] | 
88.6 | 94.4 | Cc1c(N(CCCC(F)(F)F)S(=O)(=O)c2cccc(C#N)c2)sc2ccccc12 [Compound 551, N-(3-Methyl-benzo[b]thiophen-2-yl)-N-(4,4,4-trifluoro-butyl)-3-cyano-benzenesulfonamide] | 
25.1 | 101 | Cc1c(N(CCCCC(F)(F)F)S(=O)(=O)c2cccc(C#N)c2)sc2ccccc12 [Compound 552, N-(3-Methyl-benzo[b]thiophen-2-yl)-N-(5,5,5-trifluoro-pentyl)-3-cyano-benzenesulfonamide] | 
 | 38.7 | CCCCN(c1sc2ccccc2c1Cl)S(=O)(=O)NC [Compound 553, N-(3-Chloro-benzo[b]thiophen-2-yl)-N-(butyl)-N′-methyl-sulfamide] | 
 | 52.3 | CCCCN(c1sc2ccccc2c1Br)S(=O)(=O)NC [Compound 554, N-(3-Bromo-benzo[b]thiophen-2-yl)-N-(butyl)-N′-methyl-sulfamide] | 
